For series [1], the target named is T1, GST-Met kinase (Homo sapiens, UniProt P08581).
T1 construct: made in house
In words: Met kinase assay. Format: biochemical. The method, then:
Incubation mixtures employed for the Met kinase assay contain a baculovirus expressed GST-Met kinase, the synthetic substrate polyGlu:Tyr, (4:1), ATP, ATP-γ-^33P and buffer containing Mn^+2, DTT, BSA, and Tris. Reactions were incubated for 60 minutes at 30° C. and stopped by the addition of cold trichloroacetic acid (TCA) to a final concentration 8%. TCA precipitates were collected onto GF/C UniFilter plates (Packard Instrument Co., Meriden, Conn.) using a FILTERMATE® universal harvester (Packard Instrument Co., Meriden, Conn.) and the filters are quantitated using a TopCount 96/384-well liquid scintillation counter (Packard Instrument Co., Meriden, Conn.). Dose response curves were generated to determine the concentration required to inhibit 50% of kinase activity (IC50). Compounds were dissolved at 10 mM in dimethyl sulfoxide (DMSO) and evaluated at ten concentrations, each in duplicate. The final concentration of DMSO in the assay is 1.7%. IC50 values were derived by non-linear regression.

Series [2] relates to GTL-16 gastric carcinoma xenografts. In words: In vivo efficacy, GTL-16 human gastric tumor xenograft model. As to conditions: for overt toxicity: administered once daily for 14 days, any of the dose levels. How it is done: N-(4-(2-Amino-3-chloropyridin-4-yloxy)-3-fluorophenyl)-5-(4-fluorophenyl)-4-oxo-1,4-dihydropyridine-3-carboxamide (Example 1) and (3-(4-(2-amino-3-chloropyridin-4-yloxy)-3-fluorophenylcarbamoyl)-5-(4-fluorophenyl)-4-oxopyridin-1(4H)-yl)methyl dihydrogen phosphate (Example 2) were evaluated for in vivo efficacy against the GTL-16 human gastric tumor xenograft model. Example 2 is a prodrug of Example 1.
(In xenograft studies the graft and the host belong to different species.)

Series [3] has as its system U87 glioblastoma xenografts. Description: In vivo efficacy, U87 glioblastoma xenograft model. As to conditions: 25 mg/kg, dosed orally once daily for 14 days. How it is done:
Example 1 was also tested in the U87 glioblastoma model, a Met driven tumor based on an HGF autocrine mechanism of Met activation.

Series [4] concerns the target VEGFR-2 (Homo sapiens, UniProt P35968). In words: VEGFR-2 kinase assay. The class given is biochemical. How it is done:
Incubation mixtures employed for the VEGFR-2 assay contain the synthetic substrate poly glu/tyr, (4:1), ATP, ATP-γ-^33P and buffer containing Mn^+2, DTT, BSA, and Tris buffer. The reaction is initiated by addition of enzyme and after 60 minutes at room temperature is terminated by the addition of 30% TCA to a final concentration of 15% TCA. Inhibitors are brought to 10 mM in 100% DMSO. Assays are prepared in a 96 well format in quadruplicate. Compounds are diluted 1:500 in 100% DMSO and then 1:10 in water for a final DMSO concentration of 10%. Aliquots (10 μL) are added to rows B-H in a 96 well format of 10% DMSO. The compound (20 μl) is added to row A at a concentration 5 fold higher than running conditions. Aliquots (10 μL) are transferred to each row followed by six serial dilutions with mixing, and at row F 10 μL are discarded. Row G is a control with no compound and row H is no compound and no enzyme control. Enzyme and substrate are delivered using a Tomtec Quadra station.
Plates are covered with sticky plate tops, incubated at 27° C. for 60 minutes, and then acid precipitated with TCA for 20 minutes on ice. […] Activity is determined by quantitating the incorporated radioactivity using a Packard TopCount Microplate Scintillation Counter following the addition of Microscint-20 cocktail into each dried well of the UniFilter microplates.

Series [5] relates to GTL-16 cells. Description: GTL-16 gastric carcinoma proliferation assay (MTS). The class given is cell-based. As to conditions: Homo sapiens, 72 h, 0.5% fetal calf serum. How it is done: Inhibition of GTL-16 cell growth was assessed by a MTS assay using a CELLTITER 96® Aqueous Non-Radioactive Proliferation Assay kit from Promega. The kit is composed of solutions of a novel tetrazolium compound (3-(4,5-dimethylthiazol-2-yl)-5-(3-carboxymethoxyphenyl)-2-(4-sulfophenyl)-2H-tetrazolium, inner salt; MTS) and an electron coupling reagent (phenazine methosulfate, PMS). In this colormetric assay, the conversion of MTS into aqueous, soluble formazan is accomplished by dehydrogenase enzymes found in metabolically active cells. The quantity of formazan product as measured by its absorbance at 490 nm is directly proportional to the number of living cells in culture.
GTL-16 cells were inoculated into 96 well microtiter plates in 0.5% fetal calf serum and incubated at 37° C., 5% CO2, 95% air and 100% relative humidity for 24 h prior to addition of a compound. At the time of drug treatment, one plate of the cell line was processed using the above kit to represent a measurement of the cell population at the time of drug addition. Following drug treatment, the plates were incubated for an additional 72 h before processing, and measuring cell populations. Each compound was tested at 8 different concentrations in triplicate, as was the untreated control sample. Growth inhibition of 50% (IC50) is calculated by analysis of the data in Excel that uses a 4 parameter logistic equation with data fitted using the Levenburg Marquardt algorithm

T1 sequence (P08581 25-1390): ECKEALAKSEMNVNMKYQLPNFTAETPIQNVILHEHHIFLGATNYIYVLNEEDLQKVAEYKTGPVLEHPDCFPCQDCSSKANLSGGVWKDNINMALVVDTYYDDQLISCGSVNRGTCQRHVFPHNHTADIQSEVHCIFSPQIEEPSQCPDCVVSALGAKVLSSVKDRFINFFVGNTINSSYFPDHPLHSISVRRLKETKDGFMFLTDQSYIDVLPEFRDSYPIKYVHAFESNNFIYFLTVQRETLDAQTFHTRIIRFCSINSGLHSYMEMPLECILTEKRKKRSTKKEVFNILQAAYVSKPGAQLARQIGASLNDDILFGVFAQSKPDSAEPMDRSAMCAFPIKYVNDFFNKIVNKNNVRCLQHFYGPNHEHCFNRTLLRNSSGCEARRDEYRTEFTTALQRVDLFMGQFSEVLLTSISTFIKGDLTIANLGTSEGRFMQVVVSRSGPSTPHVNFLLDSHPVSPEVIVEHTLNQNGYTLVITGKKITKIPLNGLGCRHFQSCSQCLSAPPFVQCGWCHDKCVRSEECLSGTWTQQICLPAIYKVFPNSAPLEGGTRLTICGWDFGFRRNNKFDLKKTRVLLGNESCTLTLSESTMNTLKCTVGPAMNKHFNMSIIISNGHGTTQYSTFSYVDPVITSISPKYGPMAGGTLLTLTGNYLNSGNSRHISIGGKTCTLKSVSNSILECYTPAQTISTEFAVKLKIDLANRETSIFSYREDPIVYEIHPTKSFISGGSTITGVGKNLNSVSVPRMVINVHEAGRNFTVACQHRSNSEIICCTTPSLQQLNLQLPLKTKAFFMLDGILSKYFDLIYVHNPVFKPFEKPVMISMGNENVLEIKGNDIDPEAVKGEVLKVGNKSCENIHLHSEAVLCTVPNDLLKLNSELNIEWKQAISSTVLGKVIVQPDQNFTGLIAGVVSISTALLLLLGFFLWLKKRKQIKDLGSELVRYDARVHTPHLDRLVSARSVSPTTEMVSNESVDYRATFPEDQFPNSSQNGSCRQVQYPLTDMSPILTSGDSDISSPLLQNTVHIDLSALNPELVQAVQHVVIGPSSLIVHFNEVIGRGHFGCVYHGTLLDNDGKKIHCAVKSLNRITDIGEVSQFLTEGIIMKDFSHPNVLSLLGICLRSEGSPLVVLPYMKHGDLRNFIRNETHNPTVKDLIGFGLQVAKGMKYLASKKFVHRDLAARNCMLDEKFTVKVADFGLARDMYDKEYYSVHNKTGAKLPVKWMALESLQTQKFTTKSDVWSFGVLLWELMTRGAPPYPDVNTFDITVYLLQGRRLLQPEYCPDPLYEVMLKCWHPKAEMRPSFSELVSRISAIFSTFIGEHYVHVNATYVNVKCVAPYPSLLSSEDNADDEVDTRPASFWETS
VEGFR-2, sequence (P35968 20-1356): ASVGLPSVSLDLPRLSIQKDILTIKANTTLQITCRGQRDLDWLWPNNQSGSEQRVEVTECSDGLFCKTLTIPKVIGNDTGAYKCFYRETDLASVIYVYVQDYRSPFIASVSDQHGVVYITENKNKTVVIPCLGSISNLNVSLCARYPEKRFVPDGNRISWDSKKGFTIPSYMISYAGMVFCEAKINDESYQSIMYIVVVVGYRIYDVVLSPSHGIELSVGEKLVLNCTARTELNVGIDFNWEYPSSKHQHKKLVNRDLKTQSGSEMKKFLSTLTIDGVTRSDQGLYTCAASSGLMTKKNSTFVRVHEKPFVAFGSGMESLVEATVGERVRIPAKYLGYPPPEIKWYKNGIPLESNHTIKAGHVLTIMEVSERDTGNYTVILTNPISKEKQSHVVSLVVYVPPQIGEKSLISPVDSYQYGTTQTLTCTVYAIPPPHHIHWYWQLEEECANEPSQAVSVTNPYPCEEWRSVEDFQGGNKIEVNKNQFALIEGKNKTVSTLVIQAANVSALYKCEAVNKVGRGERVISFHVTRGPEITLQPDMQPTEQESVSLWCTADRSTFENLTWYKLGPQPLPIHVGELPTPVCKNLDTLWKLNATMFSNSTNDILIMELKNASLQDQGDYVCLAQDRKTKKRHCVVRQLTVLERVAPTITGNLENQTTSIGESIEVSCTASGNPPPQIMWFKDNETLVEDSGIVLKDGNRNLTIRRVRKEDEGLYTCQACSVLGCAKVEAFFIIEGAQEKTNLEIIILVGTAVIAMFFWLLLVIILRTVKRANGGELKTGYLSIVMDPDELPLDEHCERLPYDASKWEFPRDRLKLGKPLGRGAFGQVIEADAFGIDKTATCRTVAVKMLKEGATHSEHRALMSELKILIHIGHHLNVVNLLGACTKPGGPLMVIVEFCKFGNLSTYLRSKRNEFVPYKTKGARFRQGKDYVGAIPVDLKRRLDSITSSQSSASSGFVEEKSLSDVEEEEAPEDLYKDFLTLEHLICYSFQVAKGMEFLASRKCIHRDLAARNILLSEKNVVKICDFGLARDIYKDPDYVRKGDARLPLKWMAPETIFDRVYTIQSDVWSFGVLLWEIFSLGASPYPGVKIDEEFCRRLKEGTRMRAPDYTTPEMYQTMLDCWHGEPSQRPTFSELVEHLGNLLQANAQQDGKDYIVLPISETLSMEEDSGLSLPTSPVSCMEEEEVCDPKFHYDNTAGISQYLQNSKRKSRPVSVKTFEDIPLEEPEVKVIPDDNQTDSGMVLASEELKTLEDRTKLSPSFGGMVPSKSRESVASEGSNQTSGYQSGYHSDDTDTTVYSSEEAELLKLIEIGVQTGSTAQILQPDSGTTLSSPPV

For `Nc1nccc(Oc2ccc(NC(=O)c3c[nH]cc(-c4ccc(F)cc4)c3=O)cc2F)c1Cl` [Example 1, N-(4-(2-Amino-3-chloropyridin-4-yloxy)-3-fluorophenyl)-5-(4-fluorophenyl)-4-oxo-1,4-dihydropyridine-3-carboxamide], the 50% inhibitory concentration (IC50) – broadly, the point on the concentration scale where inhibition reaches its midpoint – in series [1] came out at 1.7 nM; in series [4], 15 nM; in series [5], 39 nM. Also, the “antitumor activity (tumor stasis)” value was “complete tumor stasis” in series [2] (25 mg/kg of Example 1, once daily for 14 days) and “complete tumor stasis” in series [3]. Moreover, the overt toxicity result in series [2] is “No overt toxicity”.

As for `Nc1cc(Oc2ccc(NC(=O)c3c[nH]cc(Cc4ccccc4)c3=O)cc2F)ccn1` [Compound A, N-(4-(2-Aminopyridin-4-yloxy)-3-fluorophenyl)-5-benzyl-4-oxo-1,4-dihydropyridine-3-carboxamide], the IC50 was determined as 160 nM in series [1] and 5400 nM in series [5].

For the compound `Nc1cc(Oc2ccc(NC(=O)c3cccn(-c4ccc(F)cc4)c3=O)cc2F)ccn1` [Compound B, N-(4-(2-Aminopyridin-4-yloxy)-3-fluorophenyl)-1-(4-fluorophenyl)-2-oxo-1,2-dihydropyridine-3-carboxamide], the values for the IC50 in series [1], in series [4] and in series [5] were 4.8 nM, 40 nM and 170 nM, respectively.

Take `Nc1nccc(Oc2ccc(NC(=O)c3cn(COP(=O)(O)O)cc(-c4ccc(F)cc4)c3=O)cc2F)c1Cl` [Example 2, (3-(4-(2-Amino-3-chloropyridin-4-yloxy)-3-fluorophenylcarbamoyl)-5-(4-fluorophenyl)-4-oxopyridin-1(4H)-yl)methyl dihydrogen phosphate]: the “antitumor activity (tumor stasis)” value in series [2] (31.2 mg/kg of Example 2 (equimolar to 25 mg/kg Example 1), once daily for 14 days) is listed as “complete tumor stasis”. For the same compound, the overt toxicity entry in series [2] is reported as “No overt toxicity”.
